Measurements taken from PubChem BioAssay AID1963839 (Molecular Pharmacology Branch, DTP, NCI, 2024).

System: 817829-284-R-J1-PDC complex spheroid viability
Assay: Anticancer human tumor 817829-284-R-J1-PDC patient-derived colon adenocarcinoma cell line growth inhibition [POLQ]
Conditions: for IC50: curve of first compound; for viability, T/C: stronger effect = lower value
Summary of the method: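 Patient-derived tumour cells were co-cultured with HUVEC and mesenchymal stem cells as multicellular spheroids at 37 °C. They were treated with POLQ inhibitors (novobiocin, ART-558, RP6685) alone or combined with other agents. Top concentrations were at or near clinical Cmax (otherwise 10 microM; SN-38 at 1 microM), decreasing in half-log steps.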

[1] = second compound 0.0316 µM, first compound 0.0316 µM
[2] = second compound 0.0316 µM, first compound 0.1 µM
[3] = second compound 0.0316 µM, first compound 0.316 µM
[4] = second compound 0.0316 µM, first compound 1 µM
[5] = second compound 0.0316 µM, first compound 3.16 µM
[6] = second compound 0.0316 µM, first compound 10 µM
[7] = second compound 0.1 µM, first compound 0.0316 µM
[8] = second compound 0.1 µM, first compound 0.1 µM
[9] = second compound 0.1 µM, first compound 0.316 µM
[10] = second compound 0.1 µM, first compound 1 µM
[11] = second compound 0.1 µM, first compound 3.16 µM
[12] = second compound 0.1 µM, first compound 10 µM
[13] = second compound 0.316 µM, first compound 0.0316 µM
[14] = second compound 0.316 µM, first compound 0.1 µM
[15] = second compound 0.316 µM, first compound 0.316 µM
[16] = second compound 0.316 µM, first compound 1 µM
[17] = second compound 0.316 µM, first compound 3.16 µM
[18] = second compound 0.316 µM, first compound 10 µM
[19] = second compound 1 µM, first compound 0.0316 µM
[20] = second compound 1 µM, first compound 0.1 µM
[21] = second compound 1 µM, first compound 0.316 µM
[22] = second compound 1 µM, first compound 1 µM
[23] = second compound 1 µM, first compound 3.16 µM
[24] = second compound 1 µM, first compound 10 µM
[25] = second compound 3.16 µM, first compound 0.0316 µM
[26] = second compound 3.16 µM, first compound 0.1 µM
[27] = second compound 3.16 µM, first compound 0.316 µM
[28] = second compound 3.16 µM, first compound 1 µM
[29] = second compound 3.16 µM, first compound 3.16 µM
[30] = second compound 3.16 µM, first compound 10 µM
[31] = second compound 10 µM, first compound 0.0316 µM
[32] = second compound 10 µM, first compound 0.1 µM
[33] = second compound 10 µM, first compound 0.316 µM
[34] = second compound 10 µM, first compound 1 µM
[35] = second compound 10 µM, first compound 3.16 µM
[36] = second compound 10 µM, first compound 10 µM
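Note: spheroids exposed to compounds for 7 days.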
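Throughout, for viability, T/C: 100% = DMSO vehicle-treated spheroids.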

SMILES: CCCS(=O)(=O)Nc1ccc(F)c(C(=O)c2c[nH]c3ncc(-c4ccc(Cl)cc4)cc23)c1F + COC1C(OC(N)=O)C(O)C(Oc2ccc3c(O)c(NC(=O)c4ccc(O)c(CC=C(C)C)c4)c(=O)oc3c2C)OC1(C)C
- IC50 (second compound 0.0316 µM): 2.41 µM
- IC50 (second compound 0.1 µM): 3.34 µM
- IC50 (second compound 0.316 µM): 4.39 µM
- IC50 (second compound 1 µM): 2.9 µM
- IC50 (second compound 3.16 µM): 5.23 µM
- IC50 (second compound 10 µM): 3.52 µM
- viability, T/C [1]: 76%
- viability, T/C [2]: 77%
- viability, T/C [3]: 73.6%
- viability, T/C [4]: 73.4%
- viability, T/C [5]: 42.9%
- viability, T/C [6]: 16.6%
- viability, T/C [7]: 76.6%
- viability, T/C [8]: 74.8%
- viability, T/C [9]: 43.4%
- viability, T/C [10]: 86.7%
- viability, T/C [11]: 51.9%
- viability, T/C [12]: 12.8%
- viability, T/C [13]: 48.3%
- viability, T/C [14]: 71.4%
- viability, T/C [15]: 58.7%
- viability, T/C [16]: 71.2%
- viability, T/C [17]: 68.5%
- viability, T/C [18]: 15.9%
- viability, T/C [19]: 86.4%
- viability, T/C [20]: 80.6%
- viability, T/C [21]: 48.5%
- viability, T/C [22]: 74.6%
- viability, T/C [23]: 51.6%
- viability, T/C [24]: 13%
- viability, T/C [25]: 76.3%
- viability, T/C [26]: 76.8%
- viability, T/C [27]: 89.3%
- viability, T/C [28]: 79.1%
- viability, T/C [29]: 76.3%
- viability, T/C [30]: 16.1%
- viability, T/C [31]: 82%
- viability, T/C [32]: 86.4%
- viability, T/C [33]: 62.1%
- viability, T/C [34]: 86.4%
- viability, T/C [35]: 53.8%
- viability, T/C [36]: 13%

SMILES: CCc1c2c(nc3ccc(O)cc13)-c1cc3c(c(=O)n1C2)COC(=O)[C@]3(O)CC + Cc1cccc(N(C)C(=O)C2C(O)CCN2c2nc(C)cc(C(F)(F)F)c2C#N)c1
- IC50 (second compound 0.0316 µM): < 0.00316 µM
- IC50 (second compound 0.1 µM): < 0.00316 µM
- IC50 (second compound 0.316 µM): < 0.00316 µM
- IC50 (second compound 1 µM): < 0.00316 µM
- IC50 (second compound 3.16 µM): < 0.00316 µM
- IC50 (second compound 10 µM): < 0.00316 µM
- viability, T/C (second compound 0.0316 µM, first compound 0.00316 µM): 25.3%
- viability, T/C (second compound 0.0316 µM, first compound 0.01 µM): 19%
- viability, T/C [1]: 13.3%
- viability, T/C [2]: 7.02%
- viability, T/C [3]: 5.47%
- viability, T/C [4]: 2.88%
- viability, T/C (second compound 0.1 µM, first compound 0.00316 µM): 24.9%
- viability, T/C (second compound 0.1 µM, first compound 0.01 µM): 16.9%
- viability, T/C [7]: 11.1%
- viability, T/C [8]: 8.13%
- viability, T/C [9]: 5.27%
- viability, T/C [10]: 3.6%
- viability, T/C (second compound 0.316 µM, first compound 0.00316 µM): 16.9%
- viability, T/C (second compound 0.316 µM, first compound 0.01 µM): 15.3%
- viability, T/C [13]: 11.9%
- viability, T/C [14]: 9.03%
- viability, T/C [15]: 5.25%
- viability, T/C [16]: 3.06%
- viability, T/C (second compound 1 µM, first compound 0.00316 µM): 24.7%
- viability, T/C (second compound 1 µM, first compound 0.01 µM): 18.8%
- viability, T/C [19]: 11.3%
- viability, T/C [20]: 5.74%
- viability, T/C [21]: 5.46%
- viability, T/C [22]: 3.33%
- viability, T/C (second compound 3.16 µM, first compound 0.00316 µM): 19.6%
- viability, T/C (second compound 3.16 µM, first compound 0.01 µM): 15.9%
- viability, T/C [25]: 12.5%
- viability, T/C [26]: 8.19%
- viability, T/C [27]: 4.73%
- viability, T/C [28]: 2.56%
- viability, T/C (second compound 10 µM, first compound 0.00316 µM): 20.8%
- viability, T/C (second compound 10 µM, first compound 0.01 µM): 17%
- viability, T/C [31]: 11.3%
- viability, T/C [32]: 7.07%
- viability, T/C [33]: 5.05%
- viability, T/C [34]: 2.83%

SMILES: O=C(Nc1ccc(O)c(NS(=O)(=O)c2ccc(F)cc2)c1)c1ccc(-c2ccccc2)cc1 + Cc1cccc(N(C)C(=O)C2C(O)CCN2c2nc(C)cc(C(F)(F)F)c2C#N)c1
- IC50 (second compound 0.0316 µM): 8.08 µM
- IC50 (second compound 0.1 µM): 7.5 µM
- IC50 (second compound 0.316 µM): 8.91 µM
- IC50 (second compound 1 µM): 6.36 µM
- IC50 (second compound 3.16 µM): 5.44 µM
- IC50 (second compound 10 µM): 5.2 µM
- viability, T/C [1]: 110%
- viability, T/C [2]: 106%
- viability, T/C [3]: 113%
- viability, T/C [4]: 78.7%
- viability, T/C [5]: 91.2%
- viability, T/C [6]: 41%
- viability, T/C [7]: 98.8%
- viability, T/C [8]: 79.1%
- viability, T/C [9]: 106%
- viability, T/C [10]: 90.5%
- viability, T/C [11]: 72.6%
- viability, T/C [12]: 42.5%
- viability, T/C [13]: 96.3%
- viability, T/C [14]: 93.2%
- viability, T/C [15]: 95.9%
- viability, T/C [16]: 87.9%
- viability, T/C [17]: 87.6%
- viability, T/C [18]: 45.5%
- viability, T/C [19]: 80.6%
- viability, T/C [20]: 90.5%
- viability, T/C [21]: 92.4%
- viability, T/C [22]: 94.7%
- viability, T/C [23]: 64.8%
- viability, T/C [24]: 40.4%
- viability, T/C [25]: 95.6%
- viability, T/C [26]: 101%
- viability, T/C [27]: 102%
- viability, T/C [28]: 98.9%
- viability, T/C [29]: 60.8%
- viability, T/C [30]: 37.9%
- viability, T/C [31]: 98.4%
- viability, T/C [32]: 84.5%
- viability, T/C [33]: 92.5%
- viability, T/C [34]: 83.7%
- viability, T/C [35]: 65%
- viability, T/C [36]: 30%

SMILES: CCc1cc2c(N3CCc4c(cc(Cn5ccnc5)cc4-c4cn(C)nc4C(F)(F)F)C3=O)cc(C)nc2c(OC)n1 + COC1C(OC(N)=O)C(O)C(Oc2ccc3c(O)c(NC(=O)c4ccc(O)c(CC=C(C)C)c4)c(=O)oc3c2C)OC1(C)C
- IC50 (second compound 0.0316 µM): 3.1 µM
- IC50 (second compound 0.1 µM): 1.72 µM
- IC50 (second compound 0.316 µM): 1.95 µM
- IC50 (second compound 1 µM): 1.4 µM
- IC50 (second compound 3.16 µM): 3.38 µM
- IC50 (second compound 10 µM): 2.3 µM
- viability, T/C [1]: 82.7%
- viability, T/C [2]: 82.2%
- viability, T/C [3]: 77.6%
- viability, T/C [4]: 61.9%
- viability, T/C [5]: 51.9%
- viability, T/C [6]: 27.7%
- viability, T/C [7]: 115%
- viability, T/C [8]: 86.8%
- viability, T/C [9]: 68.5%
- viability, T/C [10]: 55.6%
- viability, T/C [11]: 47.9%
- viability, T/C [12]: 34.2%
- viability, T/C [13]: 76.8%
- viability, T/C [14]: 81.9%
- viability, T/C [15]: 68.4%
- viability, T/C [16]: 61.7%
- viability, T/C [17]: 41.7%
- viability, T/C [18]: 35.8%
- viability, T/C [19]: 95.6%
- viability, T/C [20]: 86.8%
- viability, T/C [21]: 78%
- viability, T/C [22]: 52%
- viability, T/C [23]: 41.9%
- viability, T/C [24]: 34.7%
- viability, T/C [25]: 87.5%
- viability, T/C [26]: 74.2%
- viability, T/C [27]: 75.3%
- viability, T/C [28]: 58.1%
- viability, T/C [29]: 58.3%
- viability, T/C [30]: 31.4%
- viability, T/C [31]: 81.2%
- viability, T/C [32]: 85.3%
- viability, T/C [33]: 82.6%
- viability, T/C [34]: 65.6%
- viability, T/C [35]: 44.5%
- viability, T/C [36]: 31.7%
